Experimental findings from ChEMBL document CHEMBL3813616, “Discovery of novel 7-azaindoles as PDK1 inhibitors” (Bioorg Med Chem Lett, 2016) are described below.

Each structure is given as a SMILES string.

Assay [1] concerns the target T1, Inhibitor of nuclear factor kappa-B kinase subunit beta (Homo sapiens) (UniProt O14920).
T1 sequence (whole entry): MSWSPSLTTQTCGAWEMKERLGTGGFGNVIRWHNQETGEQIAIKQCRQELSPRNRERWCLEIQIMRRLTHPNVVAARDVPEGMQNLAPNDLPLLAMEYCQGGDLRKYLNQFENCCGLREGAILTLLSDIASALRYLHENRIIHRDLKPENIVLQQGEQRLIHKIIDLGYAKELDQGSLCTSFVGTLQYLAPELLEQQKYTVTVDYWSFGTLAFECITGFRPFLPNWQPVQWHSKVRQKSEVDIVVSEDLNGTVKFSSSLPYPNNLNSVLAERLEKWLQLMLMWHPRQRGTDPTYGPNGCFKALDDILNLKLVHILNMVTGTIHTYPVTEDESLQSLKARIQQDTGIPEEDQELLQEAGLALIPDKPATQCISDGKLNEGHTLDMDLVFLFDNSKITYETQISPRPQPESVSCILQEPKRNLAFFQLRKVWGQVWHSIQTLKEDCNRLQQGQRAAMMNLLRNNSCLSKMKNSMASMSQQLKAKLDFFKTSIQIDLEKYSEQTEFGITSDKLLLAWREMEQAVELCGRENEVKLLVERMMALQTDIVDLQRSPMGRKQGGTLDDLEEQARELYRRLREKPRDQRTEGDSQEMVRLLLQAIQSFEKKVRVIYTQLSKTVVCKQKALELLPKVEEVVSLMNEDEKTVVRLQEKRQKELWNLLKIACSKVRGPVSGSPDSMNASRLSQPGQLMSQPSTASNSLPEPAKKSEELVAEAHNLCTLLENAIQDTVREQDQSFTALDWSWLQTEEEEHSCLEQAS
Kind of assay: Inhibition of human IKKbeta (1 to 736 residues) assessed as enzyme activity at 1 uM using 33P ATP by radioactive filter binding assay. Details: scale not given: the % may be the effect or the level left.

In assay [2] the target is Insulin receptor-related protein (Homo sapiens) (UniProt P14616). Kind of assay: Inhibition of human IRR (944 to 1236 residues) assessed as enzyme activity at 1 uM using 33P ATP by radioactive filter binding assay. Details: scale not given: the % may be the effect or the level left.
Assay [3] addresses MAP kinase-activated protein kinase 2 (Homo sapiens) (UniProt P49137). Description: Inhibition of human MAPKAPK2 (46 to 400 residues) assessed as enzyme activity at 1 uM using 33P ATP by radioactive filter binding assay. Details: scale not given: the % may be the effect or the level left.
The target in assay [4] is Dual specificity mitogen-activated protein kinase kinase 1 (Homo sapiens) (UniProt Q02750). Description: Inhibition of human MKK1 (2 to 393 residues) assessed as enzyme activity at 1 uM using 33P ATP by radioactive filter binding assay. Details: scale not given: the % may be the effect or the level left.
The target of assay [5] is T2, Serine/threonine-protein kinase 3 (Homo sapiens) (UniProt Q13188).
T2 sequence (whole entry): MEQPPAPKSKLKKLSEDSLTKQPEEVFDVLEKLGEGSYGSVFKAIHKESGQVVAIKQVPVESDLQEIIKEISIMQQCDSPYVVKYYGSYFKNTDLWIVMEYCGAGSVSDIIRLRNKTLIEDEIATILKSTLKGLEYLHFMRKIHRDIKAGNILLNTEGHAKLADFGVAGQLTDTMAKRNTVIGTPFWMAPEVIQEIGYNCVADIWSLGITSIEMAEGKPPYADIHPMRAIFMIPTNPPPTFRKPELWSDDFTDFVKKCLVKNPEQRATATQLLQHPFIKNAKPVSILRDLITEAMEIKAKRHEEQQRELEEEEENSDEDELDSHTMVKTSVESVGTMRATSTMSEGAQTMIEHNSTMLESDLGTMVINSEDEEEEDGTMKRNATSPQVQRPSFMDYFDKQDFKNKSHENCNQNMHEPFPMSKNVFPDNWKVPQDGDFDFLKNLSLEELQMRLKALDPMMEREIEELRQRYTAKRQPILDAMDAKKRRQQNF
Description: Inhibition of human MST2 (2 to 491 residues) assessed as enzyme activity at 1 uM using 33P ATP by radioactive filter binding assay. Set-up: scale not given: the % may be the effect or the level left.

The target of assay [6] is Protein kinase C alpha type (Homo sapiens) (UniProt P17252). Kind of assay: Inhibition of human PKCalpha (1 to 672 residues) assessed as enzyme activity at 1 uM using 33P ATP by radioactive filter binding assay. Set-up: scale not given: the % may be the effect or the level left.
Assay [7] addresses Mitogen-activated protein kinase 14 (Homo sapiens) (UniProt Q16539). Description: Inhibition of SAPK2a (unknown origin) assessed as enzyme activity at 1 uM using 33P ATP by radioactive filter binding assay. Set-up: scale not given: the % may be the effect or the level left.
Assay [8] deals with T3, Mitogen-activated protein kinase 13 (Homo sapiens) (UniProt O15264).
T3 sequence (whole entry): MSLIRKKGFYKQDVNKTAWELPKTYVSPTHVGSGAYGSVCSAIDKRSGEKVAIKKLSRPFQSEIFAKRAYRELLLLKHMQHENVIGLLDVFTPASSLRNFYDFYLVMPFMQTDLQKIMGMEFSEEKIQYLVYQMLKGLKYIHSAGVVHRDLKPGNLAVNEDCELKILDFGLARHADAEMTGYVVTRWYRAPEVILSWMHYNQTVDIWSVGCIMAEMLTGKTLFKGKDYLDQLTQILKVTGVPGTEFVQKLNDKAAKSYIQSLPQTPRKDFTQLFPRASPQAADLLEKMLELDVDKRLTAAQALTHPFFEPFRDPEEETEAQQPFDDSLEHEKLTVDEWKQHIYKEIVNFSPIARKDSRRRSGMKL
Description: Inhibition of SAPK4 (unknown origin) assessed as enzyme activity at 1 uM using 33P ATP by radioactive filter binding assay. Set-up: scale not given: the % may be the effect or the level left.

The target of assay [9] is T4, Serine/threonine-protein kinase Sgk1 (Homo sapiens) (UniProt O00141).
T4 sequence (whole entry): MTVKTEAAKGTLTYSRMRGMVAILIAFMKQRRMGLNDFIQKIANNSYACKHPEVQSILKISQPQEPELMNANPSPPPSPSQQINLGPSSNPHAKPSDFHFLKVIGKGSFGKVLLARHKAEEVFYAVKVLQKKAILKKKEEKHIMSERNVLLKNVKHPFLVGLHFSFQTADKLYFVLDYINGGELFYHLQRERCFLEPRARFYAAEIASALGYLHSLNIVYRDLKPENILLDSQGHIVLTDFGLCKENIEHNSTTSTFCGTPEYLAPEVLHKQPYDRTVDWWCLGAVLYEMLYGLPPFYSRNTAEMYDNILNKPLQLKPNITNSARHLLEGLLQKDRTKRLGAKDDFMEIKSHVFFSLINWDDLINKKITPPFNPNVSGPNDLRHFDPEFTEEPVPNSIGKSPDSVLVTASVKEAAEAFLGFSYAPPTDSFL
Kind of assay: Inhibition of human SGK assessed as enzyme activity at 1 uM using 33P ATP by radioactive filter binding assay. Set-up: scale not given: the % may be the effect or the level left.

Assay [10] concerns the target SRSF protein kinase 1 (Homo sapiens) (UniProt Q96SB4). Kind of assay: Inhibition of human SRPK1 (2 to 654 residues) assessed as enzyme activity at 1 uM using 33P ATP by radioactive filter binding assay. Set-up: scale not given: the % may be the effect or the level left.
Assay [11] concerns the target Phosphatidylinositol 4,5-bisphosphate 3-kinase catalytic subunit alpha isoform (Homo sapiens, UniProt P42336). Description: Inhibition of PI3K alpha (unknown origin).
Assay [12] concerns the target Aurora kinase B (Homo sapiens) (UniProt Q96GD4). Kind of assay: Inhibition of human Aurora B (1 to 344 residues) assessed as enzyme activity at 1 uM using 33P ATP by radioactive filter binding assay. Details: scale not given: the % may be the effect or the level left.

Chain of Phosphatidylinositol 4,5-bisphosphate 3-kinase catalytic subunit alpha isoform (P42336 whole entry, the tested form may be a part, canonical isoform): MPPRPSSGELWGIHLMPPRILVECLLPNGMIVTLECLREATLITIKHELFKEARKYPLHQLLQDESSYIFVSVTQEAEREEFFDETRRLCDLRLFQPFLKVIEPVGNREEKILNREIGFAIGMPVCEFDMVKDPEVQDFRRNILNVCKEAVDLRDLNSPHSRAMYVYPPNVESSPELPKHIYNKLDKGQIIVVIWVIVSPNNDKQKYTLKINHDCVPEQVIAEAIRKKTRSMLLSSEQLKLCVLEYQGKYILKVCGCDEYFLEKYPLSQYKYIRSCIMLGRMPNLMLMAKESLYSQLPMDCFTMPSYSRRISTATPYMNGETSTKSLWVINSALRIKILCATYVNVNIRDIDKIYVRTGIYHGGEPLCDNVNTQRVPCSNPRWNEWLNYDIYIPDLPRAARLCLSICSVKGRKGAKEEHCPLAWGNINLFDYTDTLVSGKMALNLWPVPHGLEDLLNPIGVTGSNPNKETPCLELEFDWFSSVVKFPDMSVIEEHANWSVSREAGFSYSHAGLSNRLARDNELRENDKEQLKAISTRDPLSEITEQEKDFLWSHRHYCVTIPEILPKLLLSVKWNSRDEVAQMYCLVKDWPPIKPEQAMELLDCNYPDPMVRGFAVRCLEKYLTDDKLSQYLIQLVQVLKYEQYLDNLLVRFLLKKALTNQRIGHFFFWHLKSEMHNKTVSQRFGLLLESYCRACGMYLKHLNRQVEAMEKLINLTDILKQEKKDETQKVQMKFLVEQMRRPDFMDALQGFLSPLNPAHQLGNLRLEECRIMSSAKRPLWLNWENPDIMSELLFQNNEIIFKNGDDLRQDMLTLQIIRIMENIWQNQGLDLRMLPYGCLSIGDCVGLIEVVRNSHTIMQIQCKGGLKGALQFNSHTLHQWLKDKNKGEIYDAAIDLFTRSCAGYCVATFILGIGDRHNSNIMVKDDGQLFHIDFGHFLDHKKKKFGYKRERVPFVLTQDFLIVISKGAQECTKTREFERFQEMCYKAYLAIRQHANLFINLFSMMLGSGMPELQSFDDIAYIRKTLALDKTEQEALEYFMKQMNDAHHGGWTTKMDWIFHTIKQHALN
Chain of Insulin receptor-related protein (Homo sapiens) (P14616 27-742 limits assumed): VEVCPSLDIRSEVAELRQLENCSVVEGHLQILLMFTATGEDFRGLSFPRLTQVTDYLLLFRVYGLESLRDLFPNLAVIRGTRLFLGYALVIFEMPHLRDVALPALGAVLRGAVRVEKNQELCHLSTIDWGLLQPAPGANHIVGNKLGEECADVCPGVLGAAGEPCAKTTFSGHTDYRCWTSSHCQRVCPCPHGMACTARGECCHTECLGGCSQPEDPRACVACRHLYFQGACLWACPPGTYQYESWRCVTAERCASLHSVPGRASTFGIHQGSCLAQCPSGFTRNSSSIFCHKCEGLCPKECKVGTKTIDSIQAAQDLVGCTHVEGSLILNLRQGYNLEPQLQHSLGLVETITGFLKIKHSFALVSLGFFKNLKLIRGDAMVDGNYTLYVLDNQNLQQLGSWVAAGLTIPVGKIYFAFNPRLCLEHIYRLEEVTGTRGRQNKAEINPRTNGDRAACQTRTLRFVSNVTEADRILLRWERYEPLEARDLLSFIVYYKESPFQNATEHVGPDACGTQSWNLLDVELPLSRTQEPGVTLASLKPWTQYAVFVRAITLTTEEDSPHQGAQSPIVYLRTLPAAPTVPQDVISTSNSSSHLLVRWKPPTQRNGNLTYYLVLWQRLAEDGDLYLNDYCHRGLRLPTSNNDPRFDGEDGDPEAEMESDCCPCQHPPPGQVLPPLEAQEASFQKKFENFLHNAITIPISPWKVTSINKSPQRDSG
Chain of Insulin receptor-related protein (Homo sapiens) (P14616 747-1297 limits assumed): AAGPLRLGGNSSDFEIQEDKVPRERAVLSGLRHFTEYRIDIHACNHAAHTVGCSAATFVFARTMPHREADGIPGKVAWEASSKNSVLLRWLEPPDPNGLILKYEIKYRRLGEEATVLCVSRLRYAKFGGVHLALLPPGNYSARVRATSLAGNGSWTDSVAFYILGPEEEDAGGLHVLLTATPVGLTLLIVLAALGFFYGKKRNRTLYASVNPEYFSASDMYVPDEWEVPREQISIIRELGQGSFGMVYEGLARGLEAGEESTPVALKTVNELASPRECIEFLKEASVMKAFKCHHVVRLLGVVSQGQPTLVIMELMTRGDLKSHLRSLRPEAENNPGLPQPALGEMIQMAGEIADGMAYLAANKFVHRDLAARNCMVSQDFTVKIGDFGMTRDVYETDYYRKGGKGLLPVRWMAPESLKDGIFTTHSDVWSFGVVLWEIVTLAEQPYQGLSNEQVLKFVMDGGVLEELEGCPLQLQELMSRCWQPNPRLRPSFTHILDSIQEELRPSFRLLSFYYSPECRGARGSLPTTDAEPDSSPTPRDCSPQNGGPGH
Chain of Aurora kinase B (Homo sapiens) (Q96GD4 whole entry, the tested form may be a part): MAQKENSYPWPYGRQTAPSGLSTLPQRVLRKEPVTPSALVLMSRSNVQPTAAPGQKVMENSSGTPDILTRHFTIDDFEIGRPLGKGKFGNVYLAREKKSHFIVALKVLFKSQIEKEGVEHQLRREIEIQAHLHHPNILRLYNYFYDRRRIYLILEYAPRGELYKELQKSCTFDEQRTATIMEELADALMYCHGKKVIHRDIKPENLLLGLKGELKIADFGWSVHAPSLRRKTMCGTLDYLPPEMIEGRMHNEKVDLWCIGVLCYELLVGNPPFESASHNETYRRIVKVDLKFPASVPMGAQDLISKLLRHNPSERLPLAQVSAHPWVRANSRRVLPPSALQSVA
Chain of SRSF protein kinase 1 (Homo sapiens) (Q96SB4 whole entry, the tested form may be a part, canonical isoform): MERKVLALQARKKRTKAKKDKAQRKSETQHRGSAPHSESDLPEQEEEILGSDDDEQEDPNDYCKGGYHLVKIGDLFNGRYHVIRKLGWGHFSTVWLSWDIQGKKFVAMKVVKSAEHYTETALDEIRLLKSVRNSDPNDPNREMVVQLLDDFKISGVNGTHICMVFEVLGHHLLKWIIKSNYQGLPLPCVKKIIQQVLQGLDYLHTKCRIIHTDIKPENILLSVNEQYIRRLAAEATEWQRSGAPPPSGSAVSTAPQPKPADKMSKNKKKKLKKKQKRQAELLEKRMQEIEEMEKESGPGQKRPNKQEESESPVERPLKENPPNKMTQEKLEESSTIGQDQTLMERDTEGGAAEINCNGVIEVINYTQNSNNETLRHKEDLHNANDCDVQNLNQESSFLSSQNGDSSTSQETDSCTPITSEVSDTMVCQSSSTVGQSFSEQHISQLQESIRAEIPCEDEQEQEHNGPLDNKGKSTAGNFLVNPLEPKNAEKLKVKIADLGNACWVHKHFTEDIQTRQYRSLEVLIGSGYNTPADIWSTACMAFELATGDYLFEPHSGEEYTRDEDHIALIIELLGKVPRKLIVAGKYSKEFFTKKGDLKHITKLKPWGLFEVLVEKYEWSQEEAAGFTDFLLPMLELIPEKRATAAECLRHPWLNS
Chain of Mitogen-activated protein kinase 14 (Homo sapiens) (Q16539 whole entry): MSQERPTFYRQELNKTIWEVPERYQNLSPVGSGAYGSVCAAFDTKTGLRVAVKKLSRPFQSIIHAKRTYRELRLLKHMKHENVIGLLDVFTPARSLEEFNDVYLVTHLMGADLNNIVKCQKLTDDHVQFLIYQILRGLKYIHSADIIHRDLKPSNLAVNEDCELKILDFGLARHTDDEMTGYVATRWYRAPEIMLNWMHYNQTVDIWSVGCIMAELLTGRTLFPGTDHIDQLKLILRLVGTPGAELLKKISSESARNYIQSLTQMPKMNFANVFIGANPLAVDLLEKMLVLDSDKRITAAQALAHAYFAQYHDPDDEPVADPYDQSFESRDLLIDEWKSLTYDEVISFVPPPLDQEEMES
Chain of Dual specificity mitogen-activated protein kinase kinase 1 (Homo sapiens) (Q02750 whole entry, the tested form may be a part): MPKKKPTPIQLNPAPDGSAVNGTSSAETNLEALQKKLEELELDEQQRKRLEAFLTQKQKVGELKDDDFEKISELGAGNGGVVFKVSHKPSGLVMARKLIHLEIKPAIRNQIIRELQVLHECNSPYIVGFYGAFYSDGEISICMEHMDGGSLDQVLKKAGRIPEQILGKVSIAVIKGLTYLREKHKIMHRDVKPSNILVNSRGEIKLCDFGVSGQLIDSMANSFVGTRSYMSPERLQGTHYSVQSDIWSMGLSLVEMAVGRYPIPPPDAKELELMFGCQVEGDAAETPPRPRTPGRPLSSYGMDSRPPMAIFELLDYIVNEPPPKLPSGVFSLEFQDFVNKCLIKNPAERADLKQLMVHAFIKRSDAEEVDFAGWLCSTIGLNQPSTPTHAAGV

With `CCCCc1cc(-c2c[nH]c3ncc(-c4cnn(C5CCNCC5)c4)cc23)nc(N)n1`, the Activity is -63% in assay [1]; -86% in [2]; -23% in [3]; -82% in assay [4]; -86% in assay [5]; -55% in assay [6]. In addition, the Activity in assay [7] was -22%; in assay [8], -34%; in assay [9], -78%; in assay [10], -14%; in assay [12], -62%. Besides, the IC50 (as a rule, the midpoint of a concentration-inhibition curve) in [11] was found to be 5.5 µM.

Take `CCc1cc(-c2c[nH]c3ncc(-c4cnn(C5CCNCC5)c4)cc23)nc(N)n1`: the Activity was -46% in [1]; -42% in [2]; -3% in assay [3]; -77% in assay [4]; -63% in [5]; -73% in [6]. Also, the Activity is -16% in assay [7], -22% in assay [8], -78% in [9] and 3% in [10].

`Nc1nccc(-c2c[nH]c3ncccc23)n1` [MERIOLIN 1]: the Activity in assay [1] was -45%; in assay [2], -9%; in assay [3], -8%; in assay [4], -67%; in assay [5] it was -20%; in assay [6] it was -28%. The Activity in assay [7] is -5%; in assay [8], -27%; in [9] it was -42%; in [10], -9%; in [12], -31%. The compound further displayed an IC50 in assay [11] of more than 10 µM.

With `CCCCc1cc(-c2c[nH]c3ncccc23)nc(N)n1`, the Activity is -27% in assay [1]; -82% in assay [2]; 13% in assay [3]; -21% in assay [4]; -33% in assay [5]; -18% in [6]. The Activity in assay [7] was -10%; in [8] it was -37%; in [9], -12%; in assay [10], -12%; in assay [12] it was -16%. The IC50 in assay [11] is more than 10 µM.
